Structures are written as SMILES. Activity calls are given as the source filed them. The rule behind the calls is not given here.

Assay [1] deals with T1, Peroxisome proliferator-activated receptor gamma (Homo sapiens) (UniProt P37231).
T1 sequence (whole entry): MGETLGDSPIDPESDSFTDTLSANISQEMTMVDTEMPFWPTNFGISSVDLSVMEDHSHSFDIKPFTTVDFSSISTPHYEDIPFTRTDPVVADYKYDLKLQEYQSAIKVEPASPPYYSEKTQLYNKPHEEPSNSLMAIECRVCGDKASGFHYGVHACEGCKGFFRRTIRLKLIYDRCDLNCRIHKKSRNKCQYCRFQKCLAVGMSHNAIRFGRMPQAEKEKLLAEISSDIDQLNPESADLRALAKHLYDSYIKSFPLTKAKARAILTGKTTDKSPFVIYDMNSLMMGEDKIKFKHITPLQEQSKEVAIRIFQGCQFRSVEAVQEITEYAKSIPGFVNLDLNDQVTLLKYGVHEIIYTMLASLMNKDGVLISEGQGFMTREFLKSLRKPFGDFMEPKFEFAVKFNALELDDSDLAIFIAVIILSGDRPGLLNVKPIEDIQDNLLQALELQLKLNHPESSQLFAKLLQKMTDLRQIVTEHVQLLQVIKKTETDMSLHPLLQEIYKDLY
In words: Covalent binding affinity to apo PPARgamma ligand binding domain (unknown origin) assessed as adduct formation measured within few minutes by ESI-MS analysis.

The target of assay [2] is T1, Peroxisome proliferator-activated receptor gamma (Homo sapiens). As to the kind of experiment: Covalent binding affinity to apo PPARgamma ligand binding domain (unknown origin) assessed as adduct formation incubated for 24 hrs by ESI-MS analysis.

As for `O=C(Nc1ccccc1)c1cc([N+](=O)[O-])ccc1Cl`, the outcome in assay [1] was Active. For the compound `COc1ccc(NC(=O)C#Cc2ccccc2)cc1CNC(=O)c1ccc(N2CCCCC2)cc1`, the outcome in assay [2] was Active. For the compound `CCCOc1ccc(NC(=O)C#Cc2ccccc2)cc1CNC(=O)c1ccc(-c2ncccn2)cc1`, in assay [2], the outcome was Active.
